Data published in US20130005747A1, “METHOD FOR SELECTING A CANCER THERAPY” (Cyclacel Limited, priority 2010, published 2013).

Legend:
Experiment in all cases: Fractional growth, 72 h seliciclib
Format in all cases: cell-based, human
NCI-H1734 = NCI-H1734 (Lung: NSCLC), 15 μM seliciclib
Text: (§1) A total of 270 human cancer cell lines from diverse cancer histopathologic types were investigated.

Panc 03.27 = Panc 03.27 (Pancreas), 15 μM seliciclib
Text: as §1

MFE-280 = MFE-280 (Uterus), 15 μM seliciclib
Text: as §1

EN = EN (Uterus), 15 μM seliciclib
Text: as §1

SK-N-AS = SK-N-AS (Brain), 15 μM seliciclib
Text: as §1

SBC-5 = SBC-5 (Lung), 15 μM seliciclib
Text: as §1

NCI-H1573 = NCI-H1573 (Lung: NSCLC), 15 μM seliciclib
Text: as §1

NCI-H1944 = NCI-H1944 (Lung: NSCLC), 15 μM seliciclib
Text: as §1

AGS = AGS (Stomach), 15 μM seliciclib
Text: as §1

Calu-3 = Calu-3 (Lung: NSCLC), 15 μM seliciclib
Text: as §1

HDQ-P1 = HDQ-P1 (Breast), 15 μM seliciclib
Text: as §1

H2596 = H2596 (Lung), 15 μM seliciclib
Text: as §1

JHU-028 = JHU-028 (Head & Neck), 15 μM seliciclib
Text: as §1

Hs 633T = Hs 633T (Miscellaneous), 15 μM seliciclib
Text: as §1

HTC-C3 = HTC-C3 (Thyroid), 15 μM seliciclib
Text: as §1

SW620 = SW620 (Intestine), 15 μM seliciclib
Text: as §1

HOS = HOS (Bone), 15 μM seliciclib
Text: as §1

PCI-6A = PCI-6A (Head & Neck), 15 μM seliciclib
Text: as §1

LUDLU-1 = LUDLU-1 (Lung: NSCLC), 15 μM seliciclib
Text: as §1

NCI-H2347 = NCI-H2347 (Lung: NSCLC), 15 μM seliciclib
Text: as §1

Lu-135 = Lu-135 (Lung), 15 μM seliciclib
Text: as §1

Ca Ski = Ca Ski (Cervix), 15 μM seliciclib
Text: as §1

SNU-449 = SNU-449 (Liver), 15 μM seliciclib
Text: as §1

NUGC-3 = NUGC-3 (Stomach), 15 μM seliciclib
Text: as §1

PANC-1 = PANC-1 (Pancreas), 15 μM seliciclib
Text: as §1

Panc 04.03 = Panc 04.03 (Pancreas), 15 μM seliciclib
Text: as §1

A2780 = A2780 (Ovary), 15 μM seliciclib
Text: as §1

BHT-101 = BHT-101 (Thyroid), 15 μM seliciclib
Text: as §1

NCI-H1568 = NCI-H1568 (Lung: NSCLC), 15 μM seliciclib
Text: as §1

SK-MEL-37 = SK-MEL-37 (Skin), 15 μM seliciclib
Text: as §1

JHH-6 = JHH-6 (Liver), 15 μM seliciclib
Text: as §1

SW 1116 = SW 1116 (Intestine), 15 μM seliciclib
Text: as §1

KYSE-140 = KYSE-140 (Esophagus), 15 μM seliciclib
Text: as §1

NCI-H522 = NCI-H522 (Lung: NSCLC), 15 μM seliciclib
Text: as §1

HMCB = HMCB (Skin), 15 μM seliciclib
Text: as §1

PCI-15 = PCI-15 (Head & Neck), 15 μM seliciclib
Text: as §1

EPLC-272H = EPLC-272H (Lung: NSCLC), 15 μM seliciclib
Text: as §1

CC[C@H](CO)Nc1nc(NCc2ccccc2)c2ncn(C(C)C)c2n1 [seliciclib, roscovitine]
Fractional Growth (NCI-H1734): 0.2849 | Fractional Growth (Panc 03.27): 0.5632 | Fractional Growth (MFE-280): 0.5959 | Fractional Growth (EN): 0.1503 | Fractional Growth (SK-N-AS): 0.7261 | Fractional Growth (SBC-5): 0.7399 | Fractional Growth (NCI-H1573): 0.5485 | Fractional Growth (NCI-H1944): 0.6921 | Fractional Growth (AGS): 0.2157 | Fractional Growth (Calu-3): 0.6463 | Fractional Growth (HDQ-P1): 0.8137 | Fractional Growth (H2596): 0.7486 | Fractional Growth (JHU-028): 0.5325 | Fractional Growth (Hs 633T): 0.41 | Fractional Growth (HTC-C3): 0.3914 | Fractional Growth (SW620): 0.7486 | Fractional Growth (HOS): 0.617 | Fractional Growth (PCI-6A): 0.5818 | Fractional Growth (LUDLU-1): 0.7029 | Fractional Growth (NCI-H2347): 0.3299 | Fractional Growth (Lu-135): 0.2812 | Fractional Growth (Ca Ski): 0.591 | Fractional Growth (SNU-449): 0.6309 | Fractional Growth (NUGC-3): 0.5557 | Fractional Growth (PANC-1): 0.5761 | Fractional Growth (Panc 04.03): 0.4899 | Fractional Growth (A2780): 0.4827 | Fractional Growth (BHT-101): 0.4486 | Fractional Growth (NCI-H1568): 0.3317 | Fractional Growth (SK-MEL-37): 0.5209 | Fractional Growth (JHH-6): 0.3234 | Fractional Growth (SW 1116): 0.7592 | Fractional Growth (KYSE-140): 0.6278 | Fractional Growth (NCI-H522): 0.6262 | Fractional Growth (HMCB): 0.161 | Fractional Growth (PCI-15): 0.2641 | Fractional Growth (EPLC-272H): 0.6305
